# Measured values reported in paper PMC11274521 (Cells, 2024).
# Ends that are not written are not given here. Peptide text beside a SMILES is read from it. * marks the point of attachment. Biotin = O=C1N[C@H]2[C@H](CS[C@H]2CCCCC(=O)*)N1; Ahx = NCCCCCC(=O)O
# B1: Biotin-PA-scramble (peptide)
# peptide: EYEKEYETKLREIFVNLRTNSEN
# modifications: biotin-ahx at the N-terminus; palmitic acid on the Lys side chain of EYEKEYE; ahx (6-aminohexanoic acid) between EYEKEYE and the peptide
# notes: peptide tag that carries palmitic acid on its Lys; also called biotin–PA–scrambled peptide; PA-coupled scramble peptide; source: synthetic peptide (Fmoc chemistry); not shown: biotin, N-terminal, kept
# How the values were obtained:
# albumin (HSA, BSA, FBS) = experiment: Biotin pulldown of albumin; type: binding, human, bovine; settings: 1 mM biotinylated peptide, 0.03 mM HSA, BSA or FBS, 2 h 4 °C, streptavidin resin
# Method: For immunoprecipitation (IP), 300 µg of lysate was mixed with 5 µg of human anti-PD-1 (#AF1086, R&D) or mouse anti-PD-L1 (#PA5-20343, Invitrogen-Thermo Fisher Scientific) at 4 °C for 2 h followed by 30 min incubation with 20 µL of Pierce™ Protein A/G Magnetic Beads (ThermoFisher Scientific; catalog #88802) at room temperature followed by Western blot to detect the interacted proteins. In the biotin pulldown procedure, 1 mM biotinylated peptides were incubated with 0.03 mM of albumin (BSA, HSA, the equivalent amount FBS) for 2 h at 4 °C followed by incubating with 50 µL Streptavidin resin (Genescript, Piscataway, NJ, USA) for 1 hr at room temperature, followed by SDS-PAGE to detect the bound albumin.
# [1] = mouse, in vivo
# physchem = settings: aqueous buffer
# human serum albumin = target: T1, human serum albumin (human, UniProt P02768 25-609); experiment: pull-down; 1 mM biotinylated peptide with 0.03 mM albumin (HSA or BSA) for 2 h at 4 °C, then Streptavidin resin for 1 h at room temperature; bound albumin detected by SDS-PAGE; settings: both partners purified
# T1 construct: human serum albumin (HSA); also called HSA
# bovine serum albumin = target: T2, bovine serum albumin (bovine, UniProt P02769 25-607); experiment: as above; settings: both partners purified
# T2 construct: bovine serum albumin, used as BSA and as the albumin in an equivalent amount of FBS; also called BSA; albumin of fetal bovine serum (FBS); source: also as the albumin in fetal bovine serum (FBS)
# T2 sequence (P02769 25-607): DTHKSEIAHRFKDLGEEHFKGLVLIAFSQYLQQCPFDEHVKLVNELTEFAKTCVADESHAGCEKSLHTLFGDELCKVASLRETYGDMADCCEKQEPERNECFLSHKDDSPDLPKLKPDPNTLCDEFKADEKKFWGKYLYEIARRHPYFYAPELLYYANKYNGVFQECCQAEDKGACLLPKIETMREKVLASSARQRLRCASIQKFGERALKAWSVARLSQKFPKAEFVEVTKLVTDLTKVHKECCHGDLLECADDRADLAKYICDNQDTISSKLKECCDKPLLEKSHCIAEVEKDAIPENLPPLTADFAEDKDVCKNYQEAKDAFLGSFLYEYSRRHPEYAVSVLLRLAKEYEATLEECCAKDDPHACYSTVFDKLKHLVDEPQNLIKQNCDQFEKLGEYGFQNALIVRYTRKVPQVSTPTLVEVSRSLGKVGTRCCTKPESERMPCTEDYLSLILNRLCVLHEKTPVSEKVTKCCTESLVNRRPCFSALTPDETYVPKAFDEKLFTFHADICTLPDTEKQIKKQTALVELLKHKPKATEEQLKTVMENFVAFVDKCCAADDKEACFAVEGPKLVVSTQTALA
molecule,measurement,setting,value
CC[C@H](C)[C@H](NC(=O)[C@H](CCCNC(=N)N)NC(=O)[C@H](CC(C)C)NC(=O)[C@H](CC(N)=O)NC(=O)[C@H](CO)NC(=O)[C@@H](NC(=O)[C@@H](NC(=O)[C@H](CC(N)=O)NC(=O)[C@H](Cc1ccccc1)NC(=O)[C@H](CC(C)C)NC(=O)[C@H](CCCCN)NC(=O)[C@H](CCC(=O)O)NC(=O)[C@H](CCC(=O)O)NC(=O)[C@H](CCCNC(=N)N)NC(=O)CCCCCNC(=O)[C@H](CCC(=O)O)NC(=O)[C@H](Cc1ccc(O)cc1)NC(=O)[C@H](CCC(=O)O)NC(=O)[C@H](CCCCN)NC(=O)[C@H](CCC(=O)O)NC(=O)[C@H](Cc1ccc(O)cc1)NC(=O)[C@H](CCC(=O)O)NC(=O)CCCCCNC(=O)CCCC[C@@H]1SC[C@@H]2NC(=O)N[C@@H]21)C(C)C)[C@@H](C)O)C(=O)N[C@@H](CC(N)=O)C(=O)N[C@H](C(N)=O)[C@@H](C)O [Biotin-EYEKEYE-L7N],"Binding to albumin (pulldown, SDS-PAGE)","albumin (HSA, BSA, FBS)",no binding
CC[C@H](C)[C@H](NC(=O)[C@H](CCCNC(=N)N)NC(=O)[C@H](CC(C)C)NC(=O)[C@H](CC(N)=O)NC(=O)[C@H](CO)NC(=O)[C@@H](NC(=O)[C@@H](NC(=O)[C@H](CC(N)=O)NC(=O)[C@H](Cc1ccccc1)NC(=O)[C@H](CC(C)C)NC(=O)[C@H](CCCCN)NC(=O)[C@H](CCC(=O)O)NC(=O)[C@H](CCC(=O)O)NC(=O)[C@H](CCCNC(=N)N)NC(=O)CCCCCNC(=O)CCCC[C@@H]1SC[C@@H]2NC(=O)N[C@@H]21)C(C)C)[C@@H](C)O)C(=O)N[C@@H](CC(N)=O)C(=O)N[C@H](C(N)=O)[C@@H](C)O [Biotin-L7N] ({Biotin-Ahx}-REEKLFNVTSNLRINT-NH2),"Binding to albumin (pulldown, SDS-PAGE)","albumin (HSA, BSA, FBS)",no binding
REEKLFNVTSNLRINT-NH2 [L7N],Toxicity to cells,cells,no significant toxicity
same,Immune reactions of mice,[1],adverse immune reactions
REEKLFNVTSTLRINT-NH2 [L7],solubility,physchem,< 10000 µg/mL
B1,binding result,human serum albumin,binds
same,binding result,bovine serum albumin,binds
